In patent publication US20090143361A1, “Pyrido[3,2-E]Pyrazines, Process For Preparing The Same, And Their Use As Inhibitors Of Phosphodiesterase 10” (ELBION GMBH, priority 2007, published 2009) one finds IC50 data, which are given here for 35 compounds.

The target in the experiment is T1, human recombinant PDE10A (Homo sapiens, UniProt Q9Y233).
T1 construct: made in house; host or cells: SF21 insect cells (baculovirus)
Put plainly: Inhibition of PDE10, human recombinant PDE10A ([3H]-cAMP SPA). Type of experiment: biochemical. The settings on record: Table 9; read-out: hPDE10 IC50. The method, then: The gene was than inserted into a baculovirus vector, ligated with the baculovirus DNA. The enzyme-protein was expressed in SF21-cells. The enzyme was isolated from these cells by harvesting the cells by a centrifugation at 200 g to collect the cells. The cells were resuspended in 50 mM Tris-HCl/5 mM MgCl2 buffer (pH=7.4) and lysed by a sonication of the cells. The cytosolic PDE10A was obtained by a centrifugation at 48000 g for 1 h in the supernatant and stored at −70° C. PDE10 activity was determined in a one step procedure in microtiterplates. […] Nonspecific activity was tested without the enzyme. The reaction was initiated by addition of the substrate solution and was carried out at 37° C. for 30 minutes. Enzymatic activity was stopped by addition of 25 μl YSi-SPA-beads (Amersham-Pharmacia). One hour later the mixture was measured in a liquid scintillation counter for microtiterplates (Microbeta Trilux). To pipette the incubation mixture a robot Biomek (Fa. Beckman) is used. […] For determination of IC50 values the Hill-plot, 2-parameter-model, was used.

T1 sequence (Q9Y233 1-779 isoform Q9Y233-1): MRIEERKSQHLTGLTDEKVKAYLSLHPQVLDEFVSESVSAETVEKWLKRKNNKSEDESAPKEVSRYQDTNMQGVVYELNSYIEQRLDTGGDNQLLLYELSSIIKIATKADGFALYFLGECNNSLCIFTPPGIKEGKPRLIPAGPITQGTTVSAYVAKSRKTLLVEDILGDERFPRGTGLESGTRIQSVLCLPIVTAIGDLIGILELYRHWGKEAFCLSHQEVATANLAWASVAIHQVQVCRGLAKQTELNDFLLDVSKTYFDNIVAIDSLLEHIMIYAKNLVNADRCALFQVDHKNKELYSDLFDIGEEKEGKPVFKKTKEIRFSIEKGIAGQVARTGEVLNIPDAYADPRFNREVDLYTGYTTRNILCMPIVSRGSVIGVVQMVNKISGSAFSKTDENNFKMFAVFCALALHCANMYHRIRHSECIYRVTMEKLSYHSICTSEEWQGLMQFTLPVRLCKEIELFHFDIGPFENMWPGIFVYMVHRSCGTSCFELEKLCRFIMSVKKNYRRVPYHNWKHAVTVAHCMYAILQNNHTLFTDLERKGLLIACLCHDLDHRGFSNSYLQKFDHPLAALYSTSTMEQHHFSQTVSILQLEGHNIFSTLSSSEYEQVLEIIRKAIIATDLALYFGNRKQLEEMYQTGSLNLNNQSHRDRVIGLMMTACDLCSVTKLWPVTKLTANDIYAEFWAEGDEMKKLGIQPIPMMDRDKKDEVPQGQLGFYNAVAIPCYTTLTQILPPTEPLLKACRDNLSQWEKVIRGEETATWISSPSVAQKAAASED

The IC50 is the concentration needed to halve the response being measured. Turning to `Cc1nc(-c2cc(F)cc(C(N)=O)c2)n2c1c(C)nc1ccc(OCC3CC3)nc12` [Example 145, 3-[2-(cyclopropylmethoxy)-6,7-dimethylimidazo[1,5-a]pyrido[3,2-e]pyrazin-9-yl]-5-fluorobenzamide], the half-maximal inhibitory concentration (IC50) was less than 10 nM. In the case of `Cc1ccc(C(=O)O)cc1-c1nc(C)c2c(C)nc3ccc(OCC4CC4)nc3n12` [Example 146, 3-[2-(cyclopropylmethoxy)-6,7-dimethylimidazo[1,5-a]pyrido[3,2-e]pyrazin-9-yl]-4-methylbenzoic acid], the IC50 is greater than 100 nM. To `Cc1cc(C(=O)O)ccc1-c1nc(C)c2c(C)nc3ccc(OCC4CC4)nc3n12` [Example 147, 4-[2-(cyclopropylmethoxy)-6,7-dimethylimidazo[1,5-a]pyrido[3,2-e]pyrazin-9-yl]-3-methylbenzoic acid] belongs greater than 100 nM; to `Cc1nc(-c2cccc(S(N)(=O)=O)c2)n2c1c(C)nc1ccc(OCC3CC3)nc12` [Example 148, 3-[2-(cyclopropylmethoxy)-6,7-dimethylimidazo[1,5-a]pyrido[3,2-e]pyrazin-9-yl]benzenesulfonamide], greater than 100 nM; to `Cc1ccc(C(N)=O)cc1-c1nc(C)c2c(C)nc3ccc(OCC4CC4)nc3n12` [Example 149, 3-[2-(cyclopropylmethoxy)-6,7-dimethylimidazo[1,5-a]pyrido[3,2-e]pyrazin-9-yl]-4-methylbenzamide], less than 10 nM. As to `Cc1cc(C(N)=O)ccc1-c1nc(C)c2c(C)nc3ccc(OCC4CC4)nc3n12` [Example 150, 4-[2-(cyclopropylmethoxy)-6,7-dimethylimidazo[1,5-a]pyrido[3,2-e]pyrazin-9-yl]-3-methylbenzamide], the IC50 is less than 10 nM.

With `Cc1nc(-c2cc(C(N)=O)ccc2F)n2c1c(C)nc1ccc(OCC3CC3)nc12` [Example 151, 3-[2-(cyclopropylmethoxy)-6,7-dimethylimidazo[1,5-a]pyrido[3,2-e]pyrazin-9-yl]-4-fluorobenzamide], the IC50 was less than 10 nM. To `Cc1ccccc1-c1nc(C)c2c(C)nc3ccc(=O)[nH]c3n12` [Example 152, 6,7-Dimethyl-9-o-tolylimidazo[1,5-a]pyrido[3,2-e]pyrazin-2(1H)-one] belongs 10 to 100 nM; to `Cc1ccccc1-c1nc(C)c2c(C)nc3ccc(OCC(F)F)nc3n12` [Example 153, 2-(2,2-difluoroethoxy)-6,7-dimethyl-9-(2-methylphenyl)imidazo[1,5-a]pyrido[3,2-e]pyrazine], less than 10 nM; to `Cc1ccccc1-c1nc(C)c2c(C)nc3ccc(OCCF)nc3n12` [Example 154, 2-(2-fluoroethoxy)-6,7-dimethyl-9-(2-methylphenyl)imidazo[1,5-a]pyrido[3,2-e]pyrazine], less than 10 nM. Take `Cc1ccccc1-c1nc(C)c2c(C)nc3ccc(OCC(F)(F)F)nc3n12` [Example 155]: the IC50 lay within 10 to 100 nM. To `Cc1ccccc1-c1nc(C)c2c(C)nc3ccc(OCc4ccc(F)cc4)nc3n12` [Example 157, 2-[(4-fluorobenzyl)oxy]-6,7-dimethyl-9-(2-methylphenyl)imidazo[1,5-a]pyrido[3,2-e]pyrazine] belongs 10 to 100 nM; to `Cc1ccccc1-c1nc(C)c2c(C)nc3ccc(OCc4ccncc4)nc3n12` [Example 158, 6,7-dimethyl-9-(2-methylphenyl)-2-(pyridin-4-ylmethoxy)imidazo[1,5-a]pyrido[3,2-e]pyrazine], less than 10 nM; to `Cc1ccncc1-c1nc(C)c2c(C)nc3ccc(=O)[nH]c3n12` [Example 159, 6,7-Dimethyl-9-(4-methylpyridin-3-yl)imidazo[1,5-a]pyrido[3,2-e]pyrazin-2(H)-one], greater than 100 nM. Regarding `COc1ccc2nc(C)c3c(C)nc(-c4ccncc4OC)n3c2n1` [Example 161, 2-Methoxy-9-(3-methoxypyridin-4-yl)-6,7-dimethylimidazo[1,5-a]pyrido[3,2-e]pyrazine], the IC50 was in the range of 10 to 100 nM. For the compound `COc1ccc2nc(C#N)c3c(C)nc(-c4ccccc4C)n3c2n1` [Example 165, 2-methoxy-7-methyl-9-(2-methylphenyl)imidazo[1,5-a]pyrido[3,2-e]pyrazine-6-carbonitrile], the concentration for half-maximal inhibition (IC50) lay within 10 to 100 nM. In the case of `COc1ccc2nc(C#N)c3c(C)nc(-c4cc(C(N)=O)ccc4F)n3c2n1` [Example 166, 3-(6-cyano-2-methoxy-7-methylimidazo[1,5-a]pyrido[3,2-e]pyrazin-9-yl)-4-fluorobenzamide], the IC50 is less than 10 nM. In the case of `COc1ccc2nc(C#N)c3c(C)nc(-c4cccc(C(N)=O)c4)n3c2n1` [Example 167, 3-(6-cyano-2-methoxy-7-methylimidazo[1,5-a]pyrido[3,2-e]pyrazin-9-yl)benzamide], the IC50 fell in the range of 10 to 100 nM.

`COc1ccc2nc(C#N)c3c(C)nc(-c4ccc(F)c(C(N)=O)c4)n3c2n1` [Example 168, 5-(6-cyano-2-methoxy-7-methylimidazo[1,5-a]pyrido[3,2-e]pyrazin-9-yl)-2-fluorobenzamide]: the IC50 was less than 10 nM. To `COc1ccc2nc(C#N)c3c(C)nc(-c4cnccc4C)n3c2n1` [Example 169, 2-methoxy-7-methyl-9-(4-methylpyridin-3-yl)imidazo[1,5-a]pyrido[3,2-e]pyrazine-6-carbonitrile] belongs greater than 100 nM; to `COc1ccc2nc(C#N)c3c(C)nc(-c4ccncc4)n3c2n1` [Example 170, 2-methoxy-7-methyl-9-pyridin-4-ylimidazo[1,5-a]pyrido[3,2-e]pyrazine-6-carbonitrile], greater than 100 nM. Turning to `COc1ccc2nc(C#N)c3c(C)nc(-c4cccnc4)n3c2n1` [Example 171, 2-methoxy-7-methyl-9-pyridin-3-ylimidazo[1,5-a]pyrido[3,2-e]pyrazine-6-carbonitrile], the IC50 was 10 to 100 nM. Consider `COc1ccc2nc(C#N)c3c(C)nc(-c4ccc(F)nc4C)n3c2n1` [Example 172, 9-(6-fluoro-2-methylpyridin-3-yl)-2-methoxy-7-methylimidazo[1,5-a]pyrido[3,2-e]pyrazine-6-carbonitrile], for which the IC50 was greater than 100 nM. To `COc1ccc2nc(C)c3c(C)nc(-c4ccnc(F)c4)n3c2n1` [Example 174, 9-(2-fluoropyridin-4-yl)-2-methoxy-6,7-dimethylimidazo[1,5-a]pyrido[3,2-e]pyrazine] belongs 10 to 100 nM. The result for `COc1ccc2nc(C)c3c(C)nc(-c4cccnc4F)n3c2n1` [Example 175, 9-(2-fluoropyridin-3-yl)-2-methoxy-6,7-dimethylimidazo[1,5-a]pyrido[3,2-e]pyrazine] reads less than 10 nM. Regarding `COc1ccc2nc(C)c3c(C)nc(-c4ccc5[nH]ccc5c4)n3c2n1` [Example 177, 9-(1H-indol-5-yl)-2-methoxy-6,7-dimethylimidazo[1,5-a]pyrido[3,2-e]pyrazine], the IC50 is less than 10 nM. Turning to `COc1ccc2nc(C)c3c(C)nc(-c4ccc(N(C)C)nc4)n3c2n1` [Example 178, 5-(2-methoxy-6,7-dimethylimidazo[1,5-a]pyrido[3,2-e]pyrazin-9-yl)-N,N-dimethylpyridin-2-amine], the IC50 was greater than 100 nM. The result for `COc1ccc2nc(C)c3c(C)nc(-c4cnn(C)c4)n3c2n1` [Example 180, 2-methoxy-6,7-dimethyl-9-(1-methyl-1H-pyrazol-4-yl)imidazo[1,5-a]pyrido[3,2-e]pyrazine] reads 10 to 100 nM; that for `COc1ccc2nc(C)c3c(C)nc(-c4cc[nH]c4)n3c2n1` [Example 181, 2-methoxy-6,7-dimethyl-9-(1H-pyrrol-3-yl)imidazo[1,5-a]pyrido[3,2-e]pyrazine], 10 to 100 nM. In the case of `COc1ccc2nc(C)c3c(C)nc(-c4cnn(CC(C)C)c4)n3c2n1` [Example 182, 2-methoxy-6,7-dimethyl-9-[1-(2-methylpropyl)-1H-pyrazol-4-yl]imidazo[1,5-yl}imidazo[1,5-a]pyrido[3,2-e]pyrazine], the IC50 is greater than 100 nM.

As for `COc1cncc(-c2nc(C)c3c(C)nc4ccc(OC)nc4n23)c1` [Example 184, 2-methoxy-9-(5-methoxypyridin-3-yl)-6,7-dimethylimidazo[1,5-a]pyrido[3,2-e]pyrazine], the IC50 is less than 10 nM. The result for `COc1ccc2nc(C)c3c(C)nc(-c4ccc(N5CCOCC5)nc4)n3c2n1` [Example 187, 2-methoxy-6,7-dimethyl-9-(6-morpholin-4-ylpyridin-3-yl)imidazo[1,5-a]pyrido[3,2-e]pyrazine] reads greater than 100 nM; that for `COc1ccc2nc(C)c3c(C)nc(-c4cccc(N5CCOCC5)c4)n3c2n1` [Example 188, 2-methoxy-6,7-dimethyl-9-(3-morpholin-4-ylphenyl)imidazo[1,5-a]pyrido[3,2-e]pyrazine], greater than 100 nM; that for `CCCn1cc(-c2nc(C)c3c(C)nc4ccc(OC)nc4n23)cn1` [Example 189, 2-methoxy-6,7-dimethyl-9-(1-propyl-1H-pyrazol-4-yl)imidazo[1,5-a]pyrido[3,2-e]pyrazine], greater than 100 nM. Take `COc1ccc2nc(C)c3c(C)nc(-c4cnn(CCN5CCOCC5)c4)n3c2n1` [Example 190, 2-methoxy-6,7-dimethyl-9-[1-(2-morpholin-4-ylethyl)-1H-pyrazol-4-yl]imidazo[1,5-a]pyrido[3,2-e]pyrazine]: the half-inhibitory concentration (IC50) is greater than 100 nM.
